# Test results taken from US20100279976A1, “USE OF ARTEMISININ AND ITS DERIVATIVES IN CANCER THERAPY” (SHANGHAI INSTITUTES FOR BIOLOGICAL SCIENCES, CAS, priority 2009, published 2010).
# How the values were obtained:
# [1] = tested on: HepG2 cells; experiment: MTT growth inhibition time course, alone or with gemcitabine; assay type: cell-based; conditions: Homo sapiens, HepG2, 10 μmol/L
# Description: In addition, the growth-inhibitory effects of ART and DHA and the effects in combination with gemcitabine in HepG2 and Hep3B cells may also be determined using the MTT assay. Briefly, 700 cells per well may be plated in 96-well culture plates. After a 24-h incubation, the cells may be treated with 10 μmol/L ART, 10 μmol/L DHA, 10 μg/L gemcitabine, 10 μmol/L ART plus 10 μg/L gemcitabine, or 10 μmol/L DHA plus 10 μg/L gemcitabine for various times (0, 24, 48, 72, and 96 h). The results reflect the average of three replicates.
# [2] = tested on: four hepatoma cell lines (HepG2, Hep3B, Huh-7, BEL-7404); experiment: MTT assay, mean over four hepatoma cell lines; assay type: cell-based; conditions: Homo sapiens, mean of HepG2, Hep3B, read-out: overall mean IC50 in the four hepatoma cell lines
# Description: (§1) The effects of ART derivatives on the viability of the aforementioned cells may be determined using the MTT assay. Briefly, 2,000 cells per well were plated in triplicate in 96-well plates. After a 24-h incubation, the cells may be treated with varying concentrations of ART derivatives (0, 1, 5, 10, 25, 50, and 100 μmol/L) for 48 h. The MTT assay may be performed according to the manufacture's instruction and the resultant formazan crystals may be dissolved in DMSO (100 μL). The absorbance may be then recorded at 540 nm. The effects of ART derivatives on cell viability may be assessed by comparing the percent cell viability of the treated cells with the vehicle (DMSO)-treated control cells, which may be arbitrarily assigned at 100% viability. The experiment may be repeated thrice under the same conditions.
# [3] = tested on: Hep3B cells; experiment: Cell cycle analysis (propidium iodide, flow cytometry), Hep3B; assay type: cell-based, human; conditions: 48 h
# Description: (§2) Cells (2×10^5) may be treated with ART and DHA (0, 1, 10, 25, and 50 μmol/L) as described above for 48 h. The harvested cells may be re-suspended in 200 μL of cold PBS, to which cold ethanol (600 μl) may be added, and the mixture may then be incubated for 2 h at 4° C. After centrifugation, the pellet may be washed with cold PBS, suspended in 500 μL PBS, and incubated with 50 μL RNase (20 μg/mL final concentration) for 30 min. The cells may be incubated with propidium iodide (50 μg/mL final concentration) for 30 min in the dark. The cell cycle distribution may be determined using a FACSAria instrument (BD Biosciences). The experiment may be repeated thrice under the same conditions.
# [4] = tested on: OVCAR-3 ovarian carcinoma cells; experiment: MTT cell viability assay, OVCAR-3; assay type: cell-based; conditions: Homo sapiens, OVCAR-3, 48 hrs
# Description: (§3) Human ovarian IOSE144 (immortalized non-tumorigenic human ovarian surface epithelial cells) and ovarian carcinoma (A2780 and OVCAR-3) cells that may be obtained from the American Type Culture Collection (ATCC, Manassas, Va.) are gifts from Dr. Jing Fang (Institute for Nutritional Sciences, Shanghai, China). All cells may be cultured according to the ATCC instructions. The compounds (ARS, ART, ARM and DHA) may be dissolved in DMSO (<0.1%, final concentration).
# as §1
# [5] = tested on: HepG2 hepatoma cells (p53 wild-type); experiment: MTT cell viability assay, HepG2; assay type: cell-based; conditions: Homo sapiens, 48 h
# Description: as §1
# [6] = tested on: BEL-7404 hepatoma cells (p53 mutant); experiment: MTT cell viability assay, BEL-7404; assay type: cell-based; conditions: Homo sapiens, BEL-7404 (p53 mutant), 48 h
# Description: as §1
# [7] = tested on: HepG2 cells; experiment: Cell cycle analysis (propidium iodide, flow cytometry), HepG2; assay type: cell-based, human
# Description: as §2
# [8] = tested on: Hep3B cells; experiment: Annexin V-FITC apoptosis assay, Hep3B; assay type: cell-based, human
# Description: ART- and DHA-induced apoptosis alone or in combination with gemcitabine in HepG2 and Hep3B cells or in combination with carboplatin in ovarian cancer cells may be determined by flow cytometry using the Annexin V-FITC Apoptosis Detection kit following the manufacturer's instructions. Briefly, 2×10^5 cells may be treated with ART and DHA ([…]) or 10 μg/L gemcitabine for 48 h. The cells may then be harvested, washed in PBS, and incubated with Annexin V and propidium iodide for staining in binding buffer at room temperature for 10 min in the dark. The stained cells may be analyzed using the FACSAria instrument.
# [9] = tested on: Hep3B hepatoma cells (p53 null); experiment: MTT cell viability assay, Hep3B; assay type: cell-based; conditions: Homo sapiens, 48 h
# Description: as §1
# [10] = tested on: IOSE144 immortalized non-tumorigenic ovarian surface epithelial cells; experiment: MTT cell viability assay, IOSE144; assay type: cell-based; conditions: Homo sapiens, IOSE-144, IOSE144, 48 hrs
# Description: as §3, §1
# [11] = tested on: 7702 normal human liver cells; experiment: MTT cell viability assay, normal liver cells; assay type: cell-based; conditions: 7702 cells, 48 h; for IC20: read-out: IC20 (concentration that reduces growth by 20%)
# Description: as §1
# [12] = tested on: A2780 ovarian carcinoma cells; experiment: MTT cell viability assay, A2780; assay type: cell-based; conditions: Homo sapiens, A2780, 48 hrs
# Description: as §3, §1
# [13] = HepG2, 10 μmol/L, 48 h (control 63.05%)
# [14] = 1 μmol/L, 48 h (0 μmol/L: 0.8%)
SMILES,"inhibition at 10 µM ([1]; 24 h, vs vehicle-treated cells) [%]",inhibition at 10 µM ([1]; 48 h) [%],inhibition at 10 µM ([1]; 72 h) [%],IC50 [2] [µM],cells in the G1 phase ([3]; 1 μmol/L) [%],cells in the G1 phase ([3]; 10 μmol/L) [%],cells in the G1 phase ([3]; 25 μmol/L) [%],cells in the G1 phase ([3]; 50 μmol/L) [%],IC20 [4] [µM],IC50 [4] [µM],IC80 [4] [µM],IC20 [5] [µM],IC50 [5] [µM],IC80 [5] [µM],IC20 [6] [µM],IC50 [6] [µM],IC80 [6] [µM],"cells in the G1 phase [7, 13] [%]","cells in the G1 phase ([7]; HepG2, 25 μmol/L, 48 h) [%]","cells in the G1 phase ([7]; HepG2, 50 μmol/L, 48 h) [%]",also measured
"C[C@H]1[C@@H](O)O[C@@H]2O[C@@]3(C)CC[C@H]4[C@H](C)CC[C@@H]1[C@@]24OO3 [DHA, dihydroartemisinin]",74,93,97,10.6,68.11,69.03,70.50,62.99,0.56,6.58,77.4,1.2,13.3,146,0.7,9.3,130,69.36,70.91,72.03,"apoptotic cells [8, 14]: 2.15%; apoptotic cells ([8]; 10 μmol/L, 48 h): 12.9%; apoptotic cells ([8]; 25 μmol/L, 48 h): 28.75%; apoptotic cells ([8]; 50 μmol/L, 48 h): 31.05%; IC20 [9]: 0.96 µM; IC50 [9]: 10.3 µM; IC80 [9]: 111 µM; IC20 [10]: 1.84 µM; IC50 [10]: 106 µM; IC80 [10]: > 500 µM; IC80 ([11]; Homo sapiens): > 500 µM; IC20 ([11]; Homo sapiens): 3.8 µM; IC20 [12]: 0.83 µM; IC50 [12]: 16.4 µM; IC80 [12]: 328 µM"
"C[C@@H]1CC[C@H]2[C@@H](C)C(=O)O[C@@H]3O[C@@]4(C)CC[C@@H]1[C@]32OO4 [ART, artemisinin]",69,92,96,10.8,66.11,67.48,68.70,62.99,0.46,6.86,103,1.3,14,145,0.9,9.9,107,67.41,70.72,69.21,"apoptotic cells [8, 14]: 2.25%; apoptotic cells ([8]; 10 μmol/L, 48 h): 2.65%; apoptotic cells ([8]; 25 μmol/L, 48 h): 4.8%; apoptotic cells ([8]; 50 μmol/L, 48 h): 25.3%; IC20 [9]: 0.97 µM; IC50 [9]: 10.4 µM; IC80 [9]: 113 µM; IC20 [10]: 5.6 µM; IC50 [10]: > 500 µM; IC80 [10]: > 500 µM; IC50 [11]: 60.9 µM; IC80 ([11]; Homo sapiens): > 500 µM; IC20 ([11]; Homo sapiens): 3.6 µM; IC50 ([11]; Homo sapiens): ≥ 60.9 µM; IC20 [12]: 0.73 µM; IC50 [12]: 17.6 µM; IC80 [12]: 426 µM"
